Laboratory results reported in PubChem BioAssay AID200 (DTP/NCI, 2004).
Several values for one entry are separate records, joined by “and”; a condition that tells them apart may be missing. Identical values can stand only once. Toxic doses and inconclusive results are not listed.

System: B6C3F1 mice, B16 melanoma ip, median survival T/C
Assay: NCI In Vivo Anticancer Drug Screen. Data for tumor model B16 Melanoma (intraperitoneal) in B6C3F1 mice
Settings: endpoint: median survival time, higher = longer survival
In short: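 Transplantable tumor in mice; treated vs vehicle control groups; survival or tumor size measured; value = T/C ratio.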

[1] = dose: 100.0 mg/kg/injection, schedule: Q01DX009 (ip), vehicle: Klucel (hydroxypropylcellulose) (HPC)
[2] = dose: 200.0 mg/kg/injection, schedule: Q01DX009 (ip), vehicle: Klucel (hydroxypropylcellulose) (HPC)
[3] = dose: 400.0 mg/kg/injection, schedule: Q01DX009 (ip), vehicle: Klucel (hydroxypropylcellulose) (HPC)

Structure (SMILES): O=C(Nc1ccc([N+](=O)[O-])cc1)Nc1nccs1
- T/C (dose: 12.5 mg/kg/injection, schedule: Q01DX009 (ip), vehicle: distilled water + Tween-80): 111 % of control and 120 % of control
- T/C (dose: 25.0 mg/kg/injection, schedule: Q01DX009 (ip), vehicle: distilled water + Tween-80): 111 % of control
- T/C (dose: 100.0 mg/kg/injection, schedule: Q01DX009 (ip), vehicle: distilled water + Tween-80): 105 % of control

Structure (SMILES): N[C@@H](Cc1ccc(O)c(O)c1)C(=O)O
- T/C (dose: 50.0 mg/kg/injection, schedule: Q01DX009 (ip), vehicle: suspension in saline): 94 % of control
- T/C (dose: 100.0 mg/kg/injection, schedule: Q01DX009 (ip), vehicle: suspension in saline): 110 % of control
- T/C (dose: 200.0 mg/kg/injection, schedule: Q01DX009 (ip), vehicle: suspension in saline): 100 % of control
- T/C (dose: 400.0 mg/kg/injection, schedule: Q01DX009 (ip), vehicle: suspension in saline): 101 % of control and 104 % of control
- T/C (dose: 800.0 mg/kg/injection, schedule: Q01DX009 (ip), vehicle: suspension in saline): 93 % of control and 105 % of control
- T/C (dose: 1200.0 mg/kg/injection, schedule: Q01DX009 (ip), vehicle: suspension in saline): 97 % of control
- T/C (dose: 1600.0 mg/kg/injection, schedule: Q01DX009 (ip), vehicle: suspension in saline): 100 % of control

Structure (SMILES): CN(C)/N=N/c1[nH]cnc1C(N)=O.[Cl][Cu][Cl]
- T/C (dose: 0.5 mg/kg/injection, schedule: Q01DX009 (ip), vehicle: water): 106 % of control
- T/C (dose: 1.0 mg/kg/injection, schedule: Q01DX009 (ip), vehicle: water): 106 % of control
- T/C (dose: 2.0 mg/kg/injection, schedule: Q01DX009 (ip), vehicle: water): 115 % of control
- T/C (dose: 4.0 mg/kg/injection, schedule: Q01DX009 (ip), vehicle: water): 109 % of control
- T/C (dose: 8.0 mg/kg/injection, schedule: Q01DX009 (ip), vehicle: water): 109 % of control

Structure (SMILES): CCCCC(NC(=O)CN)C(=O)O (centres undefined)
- T/C [1]: 103 % of control
- T/C [2]: 107 % of control
- T/C [3]: 122 % of control

Structure (SMILES): NC(=O)c1[nH]nc(C2OC(CO)C(O)C2O)c1O (centres undefined)
- T/C (dose: 0.13 mg/kg/injection, schedule: Q01DX009 (ip), vehicle: saline): 106 % of control
- T/C (dose: 0.25 mg/kg/injection, schedule: Q01DX009 (ip), vehicle: saline): 103 % of control
- T/C (dose: 0.5 mg/kg/injection, schedule: Q01DX009 (ip), vehicle: saline): 111 % of control
- T/C (dose: 1.0 mg/kg/injection, schedule: Q01DX009 (ip), vehicle: saline): 118 % of control

Structure (SMILES): O=C(NC(Cc1ccc(I)cc1)C(=O)O)c1ccc(Br)cc1 (centres undefined)
- T/C (dose: 25.0 mg/kg/injection, schedule: Q01DX009 (ip), vehicle: sodium bicarbonate): 96 % of control
- T/C (dose: 50.0 mg/kg/injection, schedule: Q01DX009 (ip), vehicle: sodium bicarbonate): 104 % of control
- T/C (dose: 100.0 mg/kg/injection, schedule: Q01DX009 (ip), vehicle: sodium bicarbonate): 101 % of control
- T/C (dose: 200.0 mg/kg/injection, schedule: Q01DX009 (ip), vehicle: sodium bicarbonate): 97 % of control

Structure (SMILES): O=NN(CCF)C(=O)NC1CCCCC1
- T/C (dose: 3.12 mg/kg/injection, schedule: Q01DX009 (ip), vehicle: Klucel (hydroxypropylcellulose) (HPC)): 116 % of control
- T/C (dose: 6.25 mg/kg/injection, schedule: Q01DX009 (ip), vehicle: Klucel (hydroxypropylcellulose) (HPC)): 166 % of control
- T/C (dose: 12.0 mg/kg/injection, schedule: Q01DX001 (ip), vehicle: Klucel (hydroxypropylcellulose) (HPC)): 121 % of control
- T/C (dose: 12.5 mg/kg/injection, schedule: Q01DX009 (ip), vehicle: Klucel (hydroxypropylcellulose) (HPC)): 333 % of control
- T/C (dose: 25.0 mg/kg/injection, schedule: Q01DX001 (ip), vehicle: Klucel (hydroxypropylcellulose) (HPC)): 162 % of control
- T/C (dose: 100.0 mg/kg/injection, schedule: Q01DX001 (ip), vehicle: Klucel (hydroxypropylcellulose) (HPC)): 216 % of control

Structure (SMILES): COC1/C=C/O[C@@]2(C)Oc3c(C)c(O)c4c(O)c(cc(O)c4c3C2=O)NC(=O)/C(C)=C\C=C\[C@H](C)C(O)[C@@H](C)[C@@H](O)[C@@H](C)[C@H](OC(C)=O)[C@@H]1C (some centres undefined)
- T/C (dose: 12.5 mg/kg/injection, schedule: Q01DX009 (ip), vehicle: saline with Tween-80): 95 % of control
- T/C (dose: 25.0 mg/kg/injection, schedule: Q01DX009 (ip), vehicle: saline with Tween-80): 97 % of control
- T/C (dose: 50.0 mg/kg/injection, schedule: Q01DX009 (ip), vehicle: saline with Tween-80): 93 % of control
- T/C (dose: 100.0 mg/kg/injection, schedule: Q01DX009 (ip), vehicle: saline with Tween-80): 95 % of control

Structure (SMILES): CC(=O)CC(=O)CCC(=O)O
- T/C (dose: 25.0 mg/kg/injection, schedule: Q01DX009 (ip), vehicle: saline): 97 % of control
- T/C (dose: 50.0 mg/kg/injection, schedule: Q01DX009 (ip), vehicle: saline): 97 % of control
- T/C (dose: 100.0 mg/kg/injection, schedule: Q01DX009 (ip), vehicle: saline): 93 % of control

Structure (SMILES): CCn1c(-c2ccc(OC(C)=O)cc2)c(C)c2cc(OC(C)=O)ccc21
- T/C (dose: 25.0 mg/kg/injection, schedule: Q01DX009 (ip), vehicle: Klucel (hydroxypropylcellulose) (HPC)): 104 % of control
- T/C (dose: 50.0 mg/kg/injection, schedule: Q01DX009 (ip), vehicle: Klucel (hydroxypropylcellulose) (HPC)): 97 % of control
- T/C [1]: 97 % of control
- T/C [2]: 87 % of control
- T/C [3]: 107 % of control
